tested on: Magnaporthe grisea (Pyricularia oryzae—PYRIOR); assay: microbe, parasite or virus in culture; type: cell-based; details: Pyricularia oryzae, read-out: PYRIOR in vitro Growth Inhibition

SMILES	inhibition at 25 ppm [%]
COc1ccnc(C(=O)NC2COC3(CC(C)(C)CC(C)(C)C3)OC2)c1O [Compound 315]	< 80
COC(=O)C(COC(=O)CC(C)OC(=O)C(C)C)NC(=O)c1nccc(OC)c1OC(C)=O (centres unmarked) [Compound 586]	< 80
COc1ccnc(C(=O)NC(COC(=O)C(Cc2ccccc2)C(C)OC(=O)C(C)C)C(=O)OC(C)C)c1OC(C)=O (centres unmarked) [Compound 589]	< 80
COc1ccnc(C(=O)NC2CC(c3ccco3)CC(C)(C)C2)c1O (centres unmarked) [Compound 258]	< 80

tested on: Phytophthora infestans (PHYTIN); assay: microbe, parasite or virus in culture; type: cell-based; details: Phytophthora infestans, read-out: PHYTIN in vitro Growth Inhibition

SMILES	inhibition at 25 ppm [%]
COc1ccnc(C(=O)NC2COC3(CC(C)(C)CC(C)(C)C3)OC2)c1O [Compound 315]	< 80
COC(=O)C(COC(=O)CC(C)OC(=O)C(C)C)NC(=O)c1nccc(OC)c1OC(C)=O (centres unmarked) [Compound 586]	< 80
COc1ccnc(C(=O)NC(COC(=O)C(Cc2ccccc2)C(C)OC(=O)C(C)C)C(=O)OC(C)C)c1OC(C)=O (centres unmarked) [Compound 589]	< 80
COc1ccnc(C(=O)NC2CC(c3ccco3)CC(C)(C)C2)c1O (centres unmarked) [Compound 258]	> 80

tested on: Mycosphaerella graminicola (Septoria tritici—SEPTTR); assay: In vitro fungal growth inhibition, Mycosphaerella graminicola (SEPTTR); type: cell-based; details: Zymoseptoria tritici; 25 ppm in growth medium; read-out: SEPTTR in vitro Growth Inhibition

SMILES	inhibition at 25 ppm [%]
COc1ccnc(C(=O)NC2COC3(CC(C)(C)CC(C)(C)C3)OC2)c1O [Compound 315]	< 80
COc1ccnc(C(=O)NC2CC(c3ccco3)CC(C)(C)C2)c1O (centres unmarked) [Compound 258]	> 80

same assay, conditions: Zymoseptoria tritici; 25 ppm in the growth medium; read-out: SEPTTR in vitro Growth Inhibition

SMILES	inhibition at 25 ppm [%]
COC(=O)C(COC(=O)CC(C)OC(=O)C(C)C)NC(=O)c1nccc(OC)c1OC(C)=O (centres unmarked) [Compound 586]	< 80
COc1ccnc(C(=O)NC(COC(=O)C(Cc2ccccc2)C(C)OC(=O)C(C)C)C(=O)OC(C)C)c1OC(C)=O (centres unmarked) [Compound 589]	< 80

tested on: Puccinia recondita—PUCCRT; assay: Brown Rust of Wheat, in vivo whole plant, 24 Hour Protectant; details: Puccinia; 100 ppm spray, 24 hour protectant, wheat; control of fungal infection vs untreated plants; read-out: PUCCRT in vivo 1 Day Protectant

SMILES	pest or weed control at 100 ppm [%]
COc1ccnc(C(=O)NC2COC3(CC(C)(C)CC(C)(C)C3)OC2)c1O [Compound 315]	< 25
COc1ccnc(C(=O)NC2CC(c3ccco3)CC(C)(C)C2)c1O (centres unmarked) [Compound 258]	< 25

same assay, conditions: Puccinia; wheat plants sprayed at 100 ppm, inoculated after 24 hours; control of fungal infection vs untreated plants; read-out: PUCCRT in vivo 1 Day Protectant

SMILES	pest or weed control at 100 ppm [%]
COC(=O)C(COC(=O)CC(C)OC(=O)C(C)C)NC(=O)c1nccc(OC)c1OC(C)=O (centres unmarked) [Compound 586]	25 to 74
COc1ccnc(C(=O)NC(COC(=O)C(Cc2ccccc2)C(C)OC(=O)C(C)C)C(=O)OC(C)C)c1OC(C)=O (centres unmarked) [Compound 589]	25 to 74

tested on: Phytophthora infestans—PHYTIN; assay: whole plant or invertebrate; type: in vivo; details: Phytophthora, in Solanum lycopersicum, 24 h, read-out: PHYTIN in vivo 1 Day Protectant

SMILES	pest or weed control at 100 ppm [%]
COc1ccnc(C(=O)NC2COC3(CC(C)(C)CC(C)(C)C3)OC2)c1O [Compound 315]	< 25
COC(=O)C(COC(=O)CC(C)OC(=O)C(C)C)NC(=O)c1nccc(OC)c1OC(C)=O (centres unmarked) [Compound 586]	< 25
COc1ccnc(C(=O)NC(COC(=O)C(Cc2ccccc2)C(C)OC(=O)C(C)C)C(=O)OC(C)C)c1OC(C)=O (centres unmarked) [Compound 589]	< 25
COc1ccnc(C(=O)NC2CC(c3ccco3)CC(C)(C)C2)c1O (centres unmarked) [Compound 258]	< 25

tested on: Erysiphe graminis—ERYSGT; assay: Powdery Mildew of Wheat, in vivo whole plant, 24 Hour Protectant; details: Erysiphe; 100 ppm spray, 24 hour protectant, wheat; control of fungal infection vs untreated plants; read-out: ERYSGT in vivo 1 Day Protectant

SMILES	pest or weed control at 100 ppm [%]
COc1ccnc(C(=O)NC2COC3(CC(C)(C)CC(C)(C)C3)OC2)c1O [Compound 315]	< 25
COc1ccnc(C(=O)NC2CC(c3ccco3)CC(C)(C)C2)c1O (centres unmarked) [Compound 258]	< 25

same assay, conditions: Erysiphe; wheat plants sprayed at 100 ppm, inoculated after 24 hours; control of fungal infection vs untreated plants; read-out: ERYSGT in vivo 1 Day Protectant

SMILES	pest or weed control at 100 ppm [%]
COC(=O)C(COC(=O)CC(C)OC(=O)C(C)C)NC(=O)c1nccc(OC)c1OC(C)=O (centres unmarked) [Compound 586]	< 25
COc1ccnc(C(=O)NC(COC(=O)C(Cc2ccccc2)C(C)OC(=O)C(C)C)C(=O)OC(C)C)c1OC(C)=O (centres unmarked) [Compound 589]	< 25

tested on: Ustilago maydis (USTIMA); assay: microbe, parasite or virus in culture; type: cell-based; details: Mycosarcoma maydis, read-out: USTIMA in vitro Growth Inhibition

SMILES	inhibition at 25 ppm [%]
COc1ccnc(C(=O)NC2COC3(CC(C)(C)CC(C)(C)C3)OC2)c1O [Compound 315]	< 80
COC(=O)C(COC(=O)CC(C)OC(=O)C(C)C)NC(=O)c1nccc(OC)c1OC(C)=O (centres unmarked) [Compound 586]	< 80
COc1ccnc(C(=O)NC(COC(=O)C(Cc2ccccc2)C(C)OC(=O)C(C)C)C(=O)OC(C)C)c1OC(C)=O (centres unmarked) [Compound 589]	< 80
COc1ccnc(C(=O)NC2CC(c3ccco3)CC(C)(C)C2)c1O (centres unmarked) [Compound 258]	< 80

tested on: Leptosphaeria nodorum—LEPTNO; assay: Glume Blotch of Wheat, in vivo whole plant, 24 Hour Protectant; details: Leptosphaeria; 100 ppm spray, 24 hour protectant, wheat; control of fungal infection vs untreated plants; read-out: LEPTNO in vivo 1 Day Protectant

SMILES	pest or weed control at 100 ppm [%]
COc1ccnc(C(=O)NC2COC3(CC(C)(C)CC(C)(C)C3)OC2)c1O [Compound 315]	25 to 74
COc1ccnc(C(=O)NC2CC(c3ccco3)CC(C)(C)C2)c1O (centres unmarked) [Compound 258]	25 to 74

same assay, conditions: Leptosphaeria; wheat plants sprayed at 100 ppm, inoculated after 24 hours; control of fungal infection vs untreated plants; read-out: LEPTNO in vivo 1 Day Protectant

SMILES	pest or weed control at 100 ppm [%]
COC(=O)C(COC(=O)CC(C)OC(=O)C(C)C)NC(=O)c1nccc(OC)c1OC(C)=O (centres unmarked) [Compound 586]	25 to 74
COc1ccnc(C(=O)NC(COC(=O)C(Cc2ccccc2)C(C)OC(=O)C(C)C)C(=O)OC(C)C)c1OC(C)=O (centres unmarked) [Compound 589]	< 25

tested on: Septoria tritici—SEPTTR; assay: Leaf Blotch of Wheat, in vivo whole plant, 24 Hour Protectant; details: Zymoseptoria tritici, 24 h, 100 ppm spray, 24 hour protectant, wheat; control of fungal infection vs untreated plants; read-out: SEPTTR in vivo 1 Day Protectant

SMILES	pest or weed control at 100 ppm [%]
COc1ccnc(C(=O)NC2COC3(CC(C)(C)CC(C)(C)C3)OC2)c1O [Compound 315]	< 25
COc1ccnc(C(=O)NC2CC(c3ccco3)CC(C)(C)C2)c1O (centres unmarked) [Compound 258]	25 to 74

same assay, conditions: Zymoseptoria tritici, 24 h, wheat plants sprayed at 100 ppm, inoculated after 24 hours; control of fungal infection vs untreated plants; read-out: SEPTTR in vivo 1 Day Protectant

SMILES	pest or weed control at 100 ppm [%]
COC(=O)C(COC(=O)CC(C)OC(=O)C(C)C)NC(=O)c1nccc(OC)c1OC(C)=O (centres unmarked) [Compound 586]	25 to 74
COc1ccnc(C(=O)NC(COC(=O)C(Cc2ccccc2)C(C)OC(=O)C(C)C)C(=O)OC(C)C)c1OC(C)=O (centres unmarked) [Compound 589]	25 to 74

tested on: Rhizoctonia solani (RHIZSO); assay: microbe, parasite or virus in culture; type: cell-based; details: Rhizoctonia solani, read-out: RHIZSO in vitro Growth Inhibition

SMILES	inhibition at 25 ppm [%]
COc1ccnc(C(=O)NC2COC3(CC(C)(C)CC(C)(C)C3)OC2)c1O [Compound 315]	< 80
COC(=O)C(COC(=O)CC(C)OC(=O)C(C)C)NC(=O)c1nccc(OC)c1OC(C)=O (centres unmarked) [Compound 586]	< 80
COc1ccnc(C(=O)NC(COC(=O)C(Cc2ccccc2)C(C)OC(=O)C(C)C)C(=O)OC(C)C)c1OC(C)=O (centres unmarked) [Compound 589]	< 80
COc1ccnc(C(=O)NC2CC(c3ccco3)CC(C)(C)C2)c1O (centres unmarked) [Compound 258]	< 80

tested on: Stagonospora nodorum (Leptosphaeria nodorum—LEPTNO); assay: In vitro fungal growth inhibition, Stagonospora nodorum (LEPTNO); type: cell-based; details: Leptosphaeria; 25 ppm in growth medium; read-out: LEPTNO in vitro Growth Inhibition

SMILES	inhibition at 25 ppm [%]
COc1ccnc(C(=O)NC2COC3(CC(C)(C)CC(C)(C)C3)OC2)c1O [Compound 315]	< 80
COc1ccnc(C(=O)NC2CC(c3ccco3)CC(C)(C)C2)c1O (centres unmarked) [Compound 258]	> 80

same assay, conditions: Leptosphaeria; 25 ppm in the growth medium; read-out: LEPTNO in vitro Growth Inhibition

SMILES	inhibition at 25 ppm [%]
COC(=O)C(COC(=O)CC(C)OC(=O)C(C)C)NC(=O)c1nccc(OC)c1OC(C)=O (centres unmarked) [Compound 586]	< 80
COc1ccnc(C(=O)NC(COC(=O)C(Cc2ccccc2)C(C)OC(=O)C(C)C)C(=O)OC(C)C)c1OC(C)=O (centres unmarked) [Compound 589]	< 80
